Activity calls are given as the source filed them. No cut-off for these calls is given here.

The target in assay [1] is T1, Amyloid-beta precursor protein (Homo sapiens, UniProt P05067). Briefly: Inhibition of human amyloid beta (1 to 42) aggregation after 24 hrs by thioflavin-T fluorescence assay.
The target of assay [2] is T1, Amyloid-beta precursor protein. Briefly: Inhibition of human amyloid beta (1 to 42) aggregation at 1 to 100 uM after 24 hrs by thioflavin-T fluorescence assay.
Assay [3] shares this target. Briefly: Inhibition of human amyloid beta (1 to 42) aggregates by measuring monomer concentration at 20 uM after 48 hrs by thermodynamic stability assay.
Assay [4] shares this target. In words: Inhibition of human amyloid beta (1 to 42) oligomerization assessed as decrease in trimer formation at 50 uM after 2 hrs by Western blot analysis.
Assay [5] has the same target. In words: Inhibition of human amyloid beta (1 to 42) fibril formation at 50 uM after 24 hrs by transmission electron microscopic analysis.
Assay [6] shares this target. In words: Inhibition of human amyloid beta (1 to 42) beta-sheet formation at 50 uM after 12 to 24 hrs by CD-spectra analysis.
For assay [7] the target is unchanged. In words: Inhibition of amyloid beta (1 to 42)-mediated neurotoxicity in human SH-SY5Y cells assessed as increase in cell viability after 48 hrs by MTT assay. In kind it is cell-based.
For assay [8] the target is unchanged. In words: Inhibition of amyloid beta (1 to 42)-mediated neurotoxicity in human SH-SY5Y cells assessed as increase in cell viability at 20 uM after 48 hrs by MTT assay. The assay is classed as cell-based.
For assay [9] the target is unchanged. In words: Inhibition of human amyloid beta (1 to 42) oligomerization at 90 uM after 24 to 144 hrs by Dot blot analysis.
The target is the same in assay [10]. Briefly: Inhibition of human amyloid beta (1 to 42) oligomerization assessed as decrease in trimer formation at 25 uM after 2 hrs by Western blot analysis.

T1 sequence (P05067 whole entry): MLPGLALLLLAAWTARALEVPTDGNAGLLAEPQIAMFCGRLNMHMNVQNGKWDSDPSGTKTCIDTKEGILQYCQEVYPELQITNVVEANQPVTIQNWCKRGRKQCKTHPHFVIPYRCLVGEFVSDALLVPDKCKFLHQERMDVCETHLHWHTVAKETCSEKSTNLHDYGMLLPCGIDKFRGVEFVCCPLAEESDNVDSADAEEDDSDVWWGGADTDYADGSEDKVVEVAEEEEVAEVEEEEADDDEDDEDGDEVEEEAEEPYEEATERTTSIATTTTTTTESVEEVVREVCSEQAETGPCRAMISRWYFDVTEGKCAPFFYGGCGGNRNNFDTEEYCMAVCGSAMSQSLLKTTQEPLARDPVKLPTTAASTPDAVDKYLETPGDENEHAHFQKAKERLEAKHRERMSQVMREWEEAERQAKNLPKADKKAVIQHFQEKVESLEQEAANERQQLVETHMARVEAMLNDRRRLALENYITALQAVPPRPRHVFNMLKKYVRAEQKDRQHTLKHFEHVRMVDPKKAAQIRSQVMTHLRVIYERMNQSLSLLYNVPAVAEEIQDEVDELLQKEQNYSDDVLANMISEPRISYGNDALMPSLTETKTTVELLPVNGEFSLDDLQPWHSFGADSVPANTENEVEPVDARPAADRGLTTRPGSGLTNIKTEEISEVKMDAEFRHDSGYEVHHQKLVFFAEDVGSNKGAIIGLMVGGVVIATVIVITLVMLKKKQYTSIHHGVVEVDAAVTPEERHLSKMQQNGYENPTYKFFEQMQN

In the case of `O=C(O)/C=C/c1ccc(O)c(O)c1` [CAFFEIC ACID], in [1], the concentration for half-maximal inhibition (IC50) came out at 32.8 µM and the inhibition result was “Dose-dependent effect”.

With `O=C(/C=C/c1ccc(O)c(O)c1)O[C@H]1[C@H](O)C[C@](OC(=O)/C=C/c2ccc(O)c(O)c2)(C(=O)O)C[C@H]1OC(=O)/C=C/c1ccc(O)c(O)c1`, in [1], the IC50 stood at 2.2 µM. Further, the inhibition result in assay [2] was “Active”.

In turn, `O=C(O)[C@]1(O)C[C@@H](O)[C@@H](O)[C@H](O)C1` (relative stereo) [QUINIC ACID] gave an IC50 in assay [1] of more than 100 µM. Further, in [3], the Activity was found to be 1.2 µM. In [2], the inhibition result is “inactive”. For the same compound, in assay [4], the inhibition amounted to 100%.

In the case of `O=C(/C=C/c1ccc(O)c(O)c1)O[C@H]1[C@H](O)C[C@](O)(C(=O)O)C[C@H]1OC(=O)/C=C/c1ccc(O)c(O)c1`, in assay [1], the midpoint of inhibition, the IC50, lay at 0.1 µM. The inhibition result in [5], in assay [2] and in assay [6] was “Active” each time. Further, the results for the Activity in assay [3] and in assay [8] were 10 µM and 78.9%, respectively. Besides, in [7], the inhibition entry was “Dose-dependent effect”.

Compound `O=C(/C=C/c1ccc(O)c(O)c1)O[C@@H]1C[C@](O)(C(=O)O)C[C@@H](OC(=O)/C=C/c2ccc(O)c(O)c2)[C@H]1O` returned an IC50 in assay [1] of 16.4 µM. In assay [2], the inhibition result was “Active”.

In [1], `O=C(/C=C/c1ccc(O)c(O)c1)O[C@@H]1C[C@](O)(C(=O)O)C[C@@H](OC(=O)/C=C/c2ccc(O)c(O)c2)[C@H]1OC(=O)/C=C/c1ccc(O)c(O)c1` showed an IC50 of 0.3 µM. Moreover, the inhibition result in assay [5], in assay [9], in [2] and in assay [6] was “Active” throughout. The inhibition in assay [10] is 87.6%; in assay [4] it was 63.1%; in assay [7], “Dose-dependent effect”. Also, the Activity in assay [3] was found to be 27 µM; in [8], 96.1%.

As to `COC(=O)[C@]1(O)C[C@@H](OC(=O)/C=C/c2ccc(O)c(O)c2)[C@@H](OC(=O)/C=C/c2ccc(O)c(O)c2)[C@H](OC(=O)/C=C/c2ccc(O)c(O)c2)C1`, the IC50 in assay [1] came out at 3 µM. For the same compound, the inhibition result in assay [2] is “Active”.

As to `O=C(/C=C/c1ccc(O)c(O)c1)O[C@@H]1C[C@](O)(C(=O)O)C[C@@H](O)[C@H]1O` [CHLOROGENIC ACID], in assay [1], the IC50 is 92.9 µM and the inhibition result was “Dose-dependent effect”.

Compound `COC(=O)[C@]1(O)C[C@@H](O)[C@@H](O)[C@H](OC(=O)/C=C/c2ccc(O)c(O)c2)C1` [CHLOROGENIC ACID METHYL ESTER] gave an IC50 in assay [1] of more than 100 µM. In addition, in assay [2], the inhibition result was “inactive”.

As to `O=C(/C=C/c1ccc(O)c(O)c1)O[C@@H]1[C@H](O)C[C@@](O)(C(=O)O)C[C@H]1OC(=O)/C=C/c1ccc(O)c(O)c1`, inhibition in [1] was half-maximal at 4.7 µM (IC50). For the same compound, in assay [2], the inhibition result is “Active”.

In the case of `O=C(O)/C=C/c1ccccc1` [CINNAMIC ACID], the IC50 in assay [1] is more than 100 µM. Besides, in [2], the inhibition entry is “inactive”.

For the origin of these results see ChEMBL document CHEMBL2146368, “Protective effects of caffeoylquinic acids on the aggregation and neurotoxicity of the 42-residue amyloid β-protein” (Bioorg Med Chem, 2012).
